Test results from the METLIN SMRT retention time set (Domingo-Almenara et al. 2019).

Assay: gradient 5% acetonitrile 3 min, to 50% in 2 min, to 85% in 15 min, held 3 min, 100 µL/min
Conditions: column: Zorbax Extend-C18 2.1 x 50 mm; eluents: water / acetonitrile, 0.1% formic acid
In short: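 Over 3 months, pure standards in mixtures of ~100 molecules were run by HPLC coupled to a quadrupole time-of-flight mass spectrometer in positive and negative ionization mode. The column was a Zorbax Extend-C18 (2.1 × 50 mm, 1.8 μm) at 100 μL/min, eluted with water and acetonitrile each holding 0.1% formic acid, with 40 μL dead and 900 μL dwell volumes. Retention time was determined from adduct peaks chosen by software and checked manually.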

Structure (SMILES) | RP-LC retention time
O=C(Nc1cccc(-c2ccc(N3CCOCC3)nn2)c1)Nc1ccc2c(c1)OCCO2 | 659 s
O=C(Cn1cnc2c(nc3n2CCCCC3)c1=O)NCc1ccco1 | 618 s
Cc1nn2c(CNS(=O)(=O)Cc3ccccc3Cl)c(-c3ccccc3)nc2s1 | 919 s
COC(=O)c1cc(S(=O)(=O)N2CCCC2C(=O)Nc2nc3ccc(OC)cc3s2)cn1C (stereo not given) | 893 s
COc1c2c(cc3c1OCO3)CCN(C)C2 | 598 s
O=C(NC1(c2nc(-c3cccnc3)no2)CCCCC1)c1ccoc1 | 802 s
CCN1CCc2c(sc(-n3cccc3)c2CNC(=O)Nc2cc(C)ccc2OC)C1 | 718 s
O=C1CCC2(CCN1)CCN(C(=O)C1CCCCC1)CC2 | 669 s
O=C(c1ccc(Br)o1)N1CCN(Cc2nnnn2-c2ccc(F)cc2)CC1 | 776 s
O=C(NC1CCCC1)C1c2ccccc2C(=O)N1Cc1ccc(F)cc1 (stereo not given) | 862 s
CCOc1ccccc1CNC(=O)C1CCN(C(=O)c2ncn3c2COC(c2ccccc2)C3)CC1 (stereo not given) | 803 s
CCc1ccccc1NC(=O)Cn1nc2c(Oc3cc(C)cc(C)c3)nccn2c1=O | 946 s
CCn1cnc2ccc(-c3noc(C(C)NC(=O)c4ccccc4)n3)cc21 (stereo not given) | 636 s
Cc1nnc(N2CCCC(C(=O)NCc3cccc(F)c3)C2)c2nn(-c3ccccc3)c(C)c12 (stereo not given) | 716 s
CC(C)c1cc(C(C)C)n2nc(N)nc2n1 | 734 s
Cn1c(=O)c(N2CCN(C(=O)c3ccccc3F)CC2)nc2ccccc21 | 864 s
COc1ccc(OC)c(CCN2CC(=O)N(c3ccc(C)c(Cl)c3)[C@@H]3CS(=O)(=O)C[C@@H]32)c1 | 921 s
CCOC(=O)c1noc2nc(C)nc(Nc3ccc(CC)cc3)c12 | 1160 s
Clc1cccc(-c2noc(Cn3ccnc3)n2)c1 | 636 s
COc1cc2c(cc1OC)C(=O)Cc1ccc3c(c1CN(C)CC2)OCO3 | 672 s
O=C(NCc1ccc(F)cc1Cl)C1CCN(C(=O)c2cc3ccsc3[nH]2)CC1 | 822 s
Cc1cccc(NC(=O)c2cnc3c(c2)c(=O)n(C)c(=O)n3-c2ccc(F)cc2)c1 | 904 s
Cc1cc(C)cc(-n2ccnc(NC(=O)Nc3ccc(C)c(F)c3)c2=O)c1 | 1140 s

Structure (SMILES) | RP-LC retention time
COc1ccc(-c2nc(-c3cccc(-c4ccn[nH]4)c3)no2)c(C)c1 | 1060 s
O=c1c2oc3ccccc3c2ncn1Cc1nc(-c2ccc(F)cc2)no1 | 945 s
O=C(C1CCN(c2nnc(-c3ccccc3)o2)CC1)N1CCOCC1 | 668 s
CCn1cc(CCN2CCN(C(=O)C3CCCCC3)CC2)c2cccnc21 | 613 s
C#CCOCC1CCN(C(=O)Cc2noc3ccccc23)CC1 | 761 s
CN(C)CC1CN(C(=O)c2c[nH]c3ccccc23)CC12CCOCC2 (stereo not given) | 725 s
COc1ccccc1-c1nc(-c2ccc3c(c2)oc(=O)n3C(C)C)no1 | 1090 s
COc1ccccc1NC(=O)[C@H]1[C@H]2C=C[C@]3(CN(Cc4cccnc4)C(=O)[C@@H]13)O2 | 597 s
Cc1ccccc1S(=O)(=O)N1CCc2nc(-c3ccc(Cl)cc3)ncc2C1 | 1240 s
COc1nn(C)cc1C(=O)Nc1cccc(-c2cn3c(n2)SCC3)c1 | 566 s
CC(C)c1noc(-c2ccnc(-n3cnc(C(=O)NC4CCCC4)c3)c2)n1 | 693 s
Cc1c2ccnc(C(N)=O)c2c(C)c2c1[nH]c1ccccc12 | 619 s
CCOC(=O)CNC(=O)N1CCCC1c1cccc(C)c1 (stereo not given) | 784 s
Cc1ccc(-n2nnc(C(=O)O)c2C)c(F)c1 | 705 s
COc1cc(NC(=O)Cn2nc([N+](=O)[O-])cc2C)c(OC)cc1Cl | 829 s
CCC(C(=O)N1CCC(N2CCCCC2)CC1)n1nc(C)c2sc3ccccc3c2c1=O (stereo not given) | 676 s
CCC(C)n1c(C)cc(=O)n1C(C)CC (stereo not given) | 759 s
O=C(Nc1ccc2c(c1)OCCO2)N1CCC2(CC1)CC(N1CCCC1)CCO2 (stereo not given) | 586 s
O=C(NCc1ccc2c(c1)OCO2)C(=O)NCC1OCCN1S(=O)(=O)c1ccccc1 (stereo not given) | 752 s
O=C(Nc1nc(-c2ccccc2)cs1)c1c(-c2ccccc2)nc2n1CCS2(=O)=O | 1010 s
CC1(C(=O)NCc2ccccc2)CCCN(C(=O)Nc2ccc(F)cc2)C1 (stereo not given) | 588 s
Cc1cc(C)cc(NC(=O)N2CCCC(Cn3cnc4cccnc43)C2)c1 (stereo not given) | 680 s
Cc1cc(C)n(CCNS(C)(=O)=O)n1 | 534 s

Structure (SMILES) | RP-LC retention time
O=C(Cc1cccc(F)c1)Nc1nnc(SCc2nnc(-c3ccccc3)o2)s1 | 873 s
CC(C)CN1CCn2cc(C(=O)N3CCC(C)CC3)nc2C1 | 599 s
Cc1cccc(CNC(=O)C2CCCN(c3cc(=O)n(C)c(=O)n3C)C2)c1 (stereo not given) | 701 s
Cc1ccc(CNC(=O)C2(C)CCN(S(=O)(=O)c3cc(C)cc(C)c3)CC2)cc1 | 1030 s
Cc1ccsc1C(=O)NC1CCc2nnc(C3CC3)n2CC1 (stereo not given) | 587 s
CCN1CCN(C(=O)CSCc2nc3cccnc3n2C2CCCCC2)CC1 | 625 s
COc1ccc2nc(NC(=O)C3CCN(c4nc(-c5ccc(OC)c(OC)c5)no4)CC3)sc2c1 | 933 s
CC(C)CCNc1nc(-c2ccc(Cl)cc2)nc2ccccc12 | 932 s
CC1CNc2c(cccc2S(=O)(=O)N[C@@H](CCCN=C(N)N)C(=O)N2CC[C@@H](C)C[C@@H]2C(=O)O)C1 (stereo not given in full) | 822 s
COc1ccc(OC)c(S(=O)(=O)N2CCN(c3ccccn3)CC2)c1 | 594 s
CN(C)c1ccc(CNC(=O)Cn2cnc3nc4c(cc3c2=O)CCCC4)cc1 | 586 s
O=C(NC1CCCCCC1)c1ccc(-c2cncnc2)nc1 | 764 s
Cc1nc(-c2ccccc2OC2CN(S(=O)(=O)c3cccc4nsnc34)C2)no1 | 883 s
Cc1ccc(NC(=O)c2cn(-c3cc(N(C)C)ncn3)cn2)cc1 | 832 s
COC(=O)N1CCN(Cc2cccc(NC(=O)Nc3ccc(C)nc3)c2F)CC1 | 577 s
NC(=O)c1c(NC(=O)C2CCCN(C(=O)c3ccc4c(c3)OCCO4)C2)sc2c1CCCC2 (stereo not given) | 839 s
O=C1NCCCc2c1oc1ccc(O)cc21 | 567 s
COc1cccc(S(=O)(=O)N2CC(F)(F)C[C@H]2CN2CCc3ccccc3C2)c1 | 807 s
Cc1nc(-c2ccc(N3CCN(C(=O)c4ccc(Cl)cc4)CC3)nc2)sc1C | 946 s
O=C1CC(C(=O)N2CCN(Cc3ccc4c(c3)OCO4)CC2)CN1CCc1c[nH]c2ccc(F)cc12 (stereo not given) | 649 s
O=C(Nc1ccccc1F)C1CC(=O)N(c2ccc3c(c2)CCN3C(=O)C2CC2)C1 (stereo not given) | 749 s
c1ccc(CSc2nc3ncncc3[nH]2)cc1 | 719 s
Cc1nn(-c2ccc(Cl)cc2)c(C)c1S(=O)(=O)N1CCC(C(=O)NCc2cccs2)CC1 | 950 s

Structure (SMILES) | RP-LC retention time
O=C(Nc1ncccn1)c1c[nH]c2c(Cl)cccc2c1=O | 617 s
Cn1ncc2c3ccccc3n(CCCC(=O)N3CCN(c4ccccc4)CC3)c2c1=O | 918 s
NC(=O)CSc1nnc(N2CCN(C(=O)c3cc4ccccc4o3)CC2)s1 | 635 s
CNC(=O)c1cc(C(=O)c2ccc3nc(Nc4cccc(C(F)(F)F)c4)[nH]c3c2)ccn1 | 747 s
Cc1ccc(NC(=O)N2CCC(N3CCN(Cc4ccccc4)C3=O)CC2)c(C)c1 | 843 s
CCC(C)C(=O)NC1CCN(C2=NS(=O)(=O)C(c3ccc(F)cc3)=C2C)CC1 (stereo not given) | 785 s
CC(C)Cn1c(=O)c(C(=O)NCc2ccc(C(F)(F)F)cc2)nc2cccnc21 | 1050 s
COc1cc(NC(=O)N2CCCC(C)(C(=O)NCc3ccc(C)cc3)C2)cc(OC)c1OC (stereo not given) | 811 s
Cc1cnc(C(=O)N2CCCCCCN(C)C(=O)[C@@H]3CCC[C@@H]32)cn1 | 716 s
CCNc1nc(NCC)nc(-n2cnc(SC)n2)n1 | 718 s
COc1cccc(/C=C/C(=O)NC2(c3nc(C(C)C)no3)CCCCC2)c1 | 1050 s
COC(=O)c1cccc(NC(=O)N2C[C@@H]3C[C@H](NC(=O)c4ccccc4)[C@H]2C3)c1 | 836 s
CC(C)CNC(=O)C1(CCO)CCN(Cc2ccccc2)C1 (stereo not given) | 589 s
CC(C)C(=O)Nc1ccc(-c2nc(-c3ccc(Cl)cc3)no2)cc1 | 1200 s
COc1ccc(-c2nc3cccnc3n2C2CCN(S(=O)(=O)Cc3ccccc3)C2)cc1 (stereo not given) | 874 s
CCCNC(=O)c1cc(-c2ccc(Cl)cc2)cn1C | 957 s
COc1ccc(C)cc1NC(=O)CCc1cccc2[nH]ccc12 | 942 s
CC(C)c1ccc(-c2csc(NC(=O)c3cccc(Cl)c3)n2)cc1 | 1300 s
COc1ccc(NC(=O)Cn2cc(C(=O)N3CCCCC3)c(=O)c3ccc(C)nc32)cc1 | 713 s
O=C(Cn1nc(N2CCOCC2)c2ccccc2c1=O)Nc1ccc2c(c1)OCCO2 | 737 s
Cc1ccc(-n2nc(C)c3c(C(F)(F)F)cc(OCC(=O)NCc4ccco4)nc32)cc1 | 1220 s
